Data: patent US12398178B2, “Collections of peptides, peptide agents, and methods of use thereof” (Parabilis Medicines, Inc., priority 2018, dated 2025)
Starred links: 1 amine or outer side, 2 acyl side, 3 side chain; linkers in the order of their positions; H or OH if unused. Positions of bridges follow the written chain, without caps; N, C: chain ends. Residues, ends and D or L forms follow the SMILES beside them. No end group written: not given here. X2 = O=C(C[*:1])O[C@@H]1CC[C@H](OC(=O)C[*:2])C1; Linker 16 = not defined here

Assays:
[1] = biological target: T1, full-length β-Catenin (Homo sapiens, UniProt P35222); test: Competition fluorescence polarization assay for binding to beta-catenin (displacement of FITC labeled Axin peptide probe); conditions: 15 nM full-length β-Catenin, 20 nM FITC labeled Axin peptide probe, 3-fold serial dilution from 5 μM; read-out: bCat EC50
T1 construct: Probe solution (15 nM full-length β-Catenin, 20 nM FITC labeled Axin peptide in buffer)
T1 sequence (P35222 1-781): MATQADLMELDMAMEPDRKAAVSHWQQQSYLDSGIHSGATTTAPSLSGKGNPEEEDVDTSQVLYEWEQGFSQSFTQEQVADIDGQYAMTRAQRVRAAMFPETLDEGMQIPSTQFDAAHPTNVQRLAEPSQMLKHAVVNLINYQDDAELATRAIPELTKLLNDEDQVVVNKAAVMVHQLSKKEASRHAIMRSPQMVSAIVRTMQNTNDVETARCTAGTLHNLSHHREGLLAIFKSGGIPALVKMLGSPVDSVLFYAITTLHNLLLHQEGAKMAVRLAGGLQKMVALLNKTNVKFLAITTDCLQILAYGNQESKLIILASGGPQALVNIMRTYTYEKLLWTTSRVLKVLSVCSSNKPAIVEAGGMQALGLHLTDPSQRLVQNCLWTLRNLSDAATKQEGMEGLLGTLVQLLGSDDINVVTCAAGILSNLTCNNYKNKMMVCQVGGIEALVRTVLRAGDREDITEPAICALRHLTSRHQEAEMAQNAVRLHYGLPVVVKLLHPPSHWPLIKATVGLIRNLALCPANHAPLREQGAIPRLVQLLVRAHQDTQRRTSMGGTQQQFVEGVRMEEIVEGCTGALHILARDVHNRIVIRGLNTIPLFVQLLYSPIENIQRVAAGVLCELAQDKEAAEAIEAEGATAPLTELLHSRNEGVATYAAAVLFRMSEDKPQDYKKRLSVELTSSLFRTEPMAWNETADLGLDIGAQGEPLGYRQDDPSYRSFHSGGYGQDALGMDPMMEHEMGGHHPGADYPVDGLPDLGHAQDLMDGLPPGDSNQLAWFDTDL
Experimental: Peptide assessment: In one assay for assessing binding to beta-catenin, peptide solutions were prepared in buffer (50 mM Tris pH 8.0, 250 mM NaCl, 2% glycerol, 0.5 mM EDTA, 0.02% w/v sodium azide) using a 3-fold serial dilution from 5 μM. Probe solution (15 nM full-length β-Catenin, 20 nM FITC labeled Axin peptide in buffer ([FAM-PEG1-RRWPR(S5)ILD(S5)HVRRVWR (SEQ ID NO: 44)] where the two S5 residues are stapled, as reported in: Proc Natl Acad Sci USA. 2012 Oct. 30; 109(44):17942-7)) was prepared and incubated for 5 minutes, then 40 μL per well plated in a black polystyrene 384-well plate (Corning). Equal volume of the titrated peptide was added to the plate and incubated protected from light for 15 minutes prior to read. Reads were performed on a Spectramax M5 (Molecular Devices) in duplicate.

[2] = Measurement of LogD (CHI logD by HPLC); assay type: physicochemical; conditions: CHI log D, 50 mM ammonium acetate pH 7.4 / acetonitrile gradient, C-18 column, 25° C.
Experimental: Measurement of LogD: LogD values were measured on a Agilent 1260 HPLC with UV detector (254, 220 nm), using a Gemini NX C-18 50×3 mm column (Phenomenex) with a 6-minute 0-100% mobile phase gradient of A) 50 mM ammonium acetate pH 7.4 and B) Acetonitrile at 25° C. with a flow rate of 1 mL/min and injection volume of 3-5 uL.

[3] = Measurement of LogK (log k IAM by HPLC on IAM.PC.DD2 column); assay type: physicochemical; conditions: 50 mM ammonium acetate pH 7.4 / acetonitrile, 30° C.
Experimental: Measurement of LogK: LogK values were measured on a Agilent 1260 HPLC with UV detector (254,280 nm) using a IAM.PC.DD2 100×4.6 mm column (Regis Technologies 1-774011-300) with a 6.5 min gradient of 0-90% B with mobile phase A of 50 mM ammonium acetate pH 7.4, and mobile phase B of Acetonitrile. The temperature was 30° C., the flow rate 1.5 mL/min, and the injection volume 3-5 uL. Calibration mixture IAM was purchased from Bio-mimetic Chromatography Ltd and used to run calibration, calculate CHI IAM value, then calculate logk IAM using equation: log k IAM=0.046*CHI IAM+0.42.

| EC50 [1] [µM] | chromatographic logD [2] | Compound | LogK [3] | LogD [2] |
| --- | --- | --- | --- | --- |
| > 10 | 0.91 | CC[C@H](C)[C@@H]1NC(=O)[C@H](CC(C)C)NC(=O)[C@H](C)NC(=O)[C@H](C)NC(=O)[C@H](Cc2c[nH]cn2)NC(=O)[C@H](CCC(=O)O)NC(=O)[C@@H](NC(=O)[C@H](C)NC(=O)[C@H](Cc2c[nH]c3ccccc23)NC(=O)[C@H](CC(C)C)NC(=O)[C@H](C)NC(=O)[C@@H]2CCCN2C(=O)[C@H](CC(=O)O)NC(=O)[C@H](C)N)CSCC(=O)O[C@@H]2CC[C@@H](C2)OC(=O)CSC[C@@H](C(=O)N[C@@H](CCC(=O)O)C(=O)N[C@H](C(=O)N[C@@H](CCC(N)=O)C(N)=O)[C@@H](C)O)NC1=O [Compound 47] (H-ADPALWACEHAALICETQ-NH2; linker 8-15 via X2; N-terminus and C-terminus assumed) |  |  |
| > 10 | 0.62 | GPAKPEAPGEDASPEELYHYYWDLDDYLDRVA-NH2 (C-terminus assumed) [Compound 28] |  |  |
| > 10 | 0.98 | GPAKPEAPGEDASPLELNLYYLDLHDYLQQVA-NH2 (C-terminus assumed) [Compound 30] |  |  |
| > 10 | 0.68 | CC(C)C[C@@H]1NC(=O)[C@H](C)NC(=O)[C@H](C)NC(=O)[C@H](Cc2c[nH]c3ccccc23)NC(=O)[C@H](CCC(=O)O)NC(=O)[C@@H](NC(=O)[C@H](CCCNC(=N)N)NC(=O)[C@H](Cc2c[nH]cn2)NC(=O)[C@@H](NC(=O)[C@H](C)NC(=O)[C@@H]2CCCN2C(=O)[C@H](CC(=O)O)NC(=O)[C@H](C)N)[C@@H](C)O)CSCC(=O)N(C)c2ccc(cc2)N(C)C(=O)CSC[C@@H](C(=O)N[C@@H](CCC(=O)O)C(=O)N[C@@H](CC(C)C)C(=O)N[C@H](C(N)=O)C(C)C)NC(=O)[C@H](Cc2c[nH]cn2)NC1=O [Compound 31] |  |  |
| > 10 | 0.81 | GPAKPEAPGEDASPDELYYYYDDLRQYLSTVA-NH2 (C-terminus assumed) [Compound 23] |  |  |
| > 10 | 0.82 | GPAKPEAPGEDASPDELTYYYDELRDYLYSVA-NH2 (C-terminus assumed) [Compound 19] |  |  |
| > 10 | 0.64 | GPAKPEAPGEDASPNELHYYYWELDSYLENVA-NH2 (C-terminus assumed) [Compound 27] |  |  |
| > 10 |  | 37 (ADPATHRCEWAALHCELV; linker 8-15 via Linker 16 (inferred); reading uncertain) [Compound 37] | 1.34 | 0.84 |
| > 10 | 0.73 | GPAKPEAPGEDASPIELWEYYESLETYLDNVA-NH2 (C-terminus assumed) [Compound 29] |  |  |
| > 10 | 0.77 | CC(C)C[C@@H]1NC(=O)[C@H](C)NC(=O)[C@H](C)NC(=O)[C@H](Cc2c[nH]c3ccccc23)NC(=O)[C@H](CCC(=O)O)NC(=O)[C@@H](NC(=O)[C@H](CCCNC(=N)N)NC(=O)[C@H](Cc2c[nH]cn2)NC(=O)[C@@H](NC(=O)[C@H](C)NC(=O)[C@@H]2CCCN2C(=O)[C@H](CC(=O)O)NC(=O)[C@H](C)N)[C@@H](C)O)CSCC(=O)Nc2ccccc2NC(=O)CSC[C@@H](C(=O)N[C@@H](CCC(=O)O)C(=O)N[C@@H](CC(C)C)C(=O)N[C@H](C(N)=O)C(C)C)NC(=O)[C@H](Cc2c[nH]cn2)NC1=O [Compound 35] |  |  |
| > 10 | 0.66 | GPAKPEAPGEDASPTELYYYYDHLTDYLDVVP-NH2 (C-terminus assumed) [Compound 24] |  |  |
| > 10 | 0.44 | GPAKPEAPGEDASPDELRMYYHELDNYLDQVA-NH2 (C-terminus assumed) [Compound 21] |  |  |
| > 10 | 1.09 | GPAKPEAPGEDASPDELHTYYDTLYHYLTSVA-NH2 (C-terminus assumed) [Compound 22] |  |  |
| > 10 | 0.59 | GPAKPEAPGEDASPNELYYYYDELHYYLHDVA-NH2 (C-terminus assumed) [Compound 25] |  |  |
